# Measured values published in patent US7709458B2, “Method for inhibiting cancer cell proliferation or increasing cancer cell apoptosis” (priority 2004, dated 2010).
# Tests used:
# [1] = patients with Stage II or III disease; adjuvant chemotherapy (Bresalier, 2002); cited from earlier work
# [2] = system: H508 human colon cancer cells; experiment: H508 colon cancer cell proliferation assay (sulforhodamine B colorimetric assay); format: cell-based; conditions: for effect on basal H508 cell proliferation / effect on EGF-induced H508 cell proliferation / effect on acetylcholine-induced H508 cell proliferation: 50 μM; for effect on basal H508 cell proliferation / potency in reducing acetylcholine- and EGF-stimulated H508 proliferation compared with c-di-GMP: 5 days incubation; for effect on EGF-induced H508 cell proliferation: EGF 1 ng/ml; for effect on EGF-induced H508 cell proliferation / effect on acetylcholine-induced H508 cell proliferation: 5 days; for effect on acetylcholine-induced H508 cell proliferation: acetylcholine 300 μM
# Protocol: H508 colon cancer cell culture. H508 human colon cancer cells were grown in RPMI 1640 (ATCC) supplemented with 10% fetal bovine serum (FBS) (Biowhittaker). Adherent cultures were passaged weekly at subconfluence after trypsinization. Cultures were maintained in incubators at 37° C. in an atmosphere of 5% CO2 and 95% air.
# H508 colon cancer cell proliferation assay. Cell proliferation was determined using the sulforhodamine B (SRB) colorimetric assay (Skehan et al., 1990). Cells were seeded in 96-well plates (Corning Glass Works, Corning, N.Y.) at approx. 10% confluence and allowed to attach for 24 h. Growth medium was removed and fresh medium without FBS and containing the indicated concentration of test agent was added. Cells were incubated for the indicated periods of time at 37° C. in an atmosphere of 5% CO2 and 95% air. After incubation, cells were treated for 30 min with 0.4% (w/v) SRB dissolved in 1% acetic acid. Protein-bound dye was extracted with unbuffered 10 mM Tris base. Absorbance was measured at 560 nm using a computer-interfaced, 96-well microtiter plate reader.
# c-di-GMP inhibits proliferation of human colon cancer cells. The potential therapeutic actions of c-di-GMP were examined on basal and growth factor-stimulated proliferation of cells derived from a moderately differentiated human cecal adenocarcinoma (H508 cells) that express M3 muscarinic (M3R) and epidermal growth factor (EGF) receptors (EGFR) (Cheng et al., 2003). Cell proliferation was determined using the validated sulforhodamine B (SRB) calorimetric assay (Skehan et al., 1990). H508 cells were incubated in the absence or presence of a growth stimulant, acetylcholine (300 μM) and EGF (1 ng/ml) alone or with increasing concentrations of c-di-GMP (0.5-50 μM). After a 5-day incubation, the highest concentration of c-di-GMP tested, 50 μM, reduced basal H508 cell proliferation by approx. 15% (FIG. 1; p<0.05 compared to control, Student's unpaired t-test).
SMILES,reduction of colon cancer mortality [1],reduction of colon cancer recurrence [1],effect on basal H508 cell proliferation [2],effect on EGF-induced H508 cell proliferation [2],effect on acetylcholine-induced H508 cell proliferation [2],potency in reducing acetylcholine- and EGF-stimulated H508 proliferation compared with c-di-GMP [2]
O=c1[nH]cc(F)c(=O)[nH]1 [5-fluorouracil],33%,42%,,,,
"Nc1nc2c(ncn2[C@@H]2O[C@H](COP(=O)(O)O)[C@@H](O)[C@H]2O)c(=O)[nH]1 [5′-GMP, guanosine 5′-monophosphate, reference compound]",,,"neither of the guanosine analogs tested, cGMP and 5′-GMP, altered basal proliferation",reduced,reduced,less potent in this action than c-di-GMP
"Nc1nc2c(ncn2[C@@H]2O[C@@H]3COP(=O)(O)O[C@H]3[C@H]2O)c(=O)[nH]1 [cGMP, guanosine 3′,5′-cyclic monophosphate, reference compound]",,,"neither of the guanosine analogs tested, cGMP and 5′-GMP, altered basal proliferation",reduced,reduced,less potent in this action than c-di-GMP
